How the values were obtained:
[1] = system: WSU-DLCL-2 cells (diffuse large B cell lymphoma cells); test: CTG cell proliferation assay, WSU-DLCL-2 cells; assay type: cell-based; details: Homo sapiens, WSUDLCL2, WSU-DLCL-2 cells, 72-120 hours, CellTiter-Glo; read-out: IC50 Value of WSU-DLCL2 Inhibition
Description: (§1) CTG Cell Proliferation Assay
(§2) Rec-1 cells (Mantle cell lymphoma cells) (ATCC, catalog number CRL-3004), Namalwa.CSN/70 cells (Burkitt lymphoma cells) (DSMZ, catalog number ACC-70), and WSU-DLCL-2 cells (diffuse large B cell lymphoma cells) (DSMZ, catalog number ACC-575) were seeded at (5-15)×10^3 per well to a 96-well plate with transparent bottom and white wall (Corning, catalog number CLS3903) containing specific medium. The plate was placed in an incubator and incubated for 24 hours at 37° C. under 5% CO2. Compounds were prepared as 150 mM stock solutions with DMSO (Sigma, catalog number 276855), and were diluted with the medium to the desired concentration (the final concentration of DMSO was 0.2%) and then were added to each well, incubated in an incubator for 72-120 hours at 37° C. under 5% CO2. Then, 100 μl CellTiter-Glo® cell activity assay reagent (Promega, catalog number G7570) was added to each well. Mixing proceeded for 10 minutes on a shaker to induce cytolysis. The 96-well plate was placed at room temperature for 10 minutes to make the luminous signal stable. A white base film was pasted at the bottom of the culture plate. EnSpire was used to test the plate.

[2] = system: Rec-1 cells (Mantle cell lymphoma cells); test: CTG cell proliferation assay, Rec-1 cells; assay type: cell-based; details: Homo sapiens, Rec1, 72-120 hours, CellTiter-Glo, read-out: IC50 Value of Rec-1 Inhibition
Description: as §1, §2

[3] = system: Namalwa.CSN/70 cells (Burkitt lymphoma cells); test: CTG cell proliferation assay, Namalwa.CSN/70 cells; assay type: cell-based; details: 72-120 hours, CellTiter-Glo, read-out: IC50 Value of Namalwa.CSN/70 Inhibition
Description: as §1, §2

[4] = system: MM.1S cells (myeloma cells); test: Cell proliferation assay (MTS), MM.1S myeloma cells; assay type: cell-based; details: Homo sapiens, MM1.S, 72 hours, read-out: IC50 values of MMIS Inhibition
Summary of the method: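 MM.1S myeloma cells were seeded at 1.8×10^3 per well in RPMI and rested 24 hours before 72 hours of compound exposure at 37° C., 5% CO2, with final DMSO at 0.5%. Viability was read by MTS at OD490 nm, using OD650 nm as reference. IC50 came from variable-slope curves, with the 0.5% DMSO control set as 0% inhibition.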

TNF-α = TNF-α activity inhibiting assay (LPS-stimulated peripheral blood, ELISA); assay type: cell-based, human; details: Homo sapiens, compound 100 nM, diluted peripheral blood of healthy volunteers, LPS 10 ng/mL, 6 hours, read-out: Inhibitory Rate on TNF-α (%)
Summary of the method: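 Human whole blood (EDTA), diluted 5-fold in RPMI 1640, pre-incubated 60 min at 37 °C with compound at 100 nM final (0.2% DMSO), then stimulated 6 h with 10 ng/mL LPS. Supernatant TNF-α measured by ELISA (OD450); inhibition relative to 0.2% DMSO control.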

SMILES	IC50 [1] [nM]	IC50 [2] [nM]	IC50 [3] [nM]	IC50 [4] [nM]	inhibition at 0.1 µM (TNF-α) [%]
[2H][C@@]1(N2Cc3c(N)cc(F)cc3C2=O)CCC(=O)NC1=O [Compound I-32]	> 300000	100 to 400	> 300000	≥ 300	> 50
Nc1cccc2c1CN(C1CCC(=O)NC1=O)C2=O (stereo not shown) [Lenalidomide, 3-(4-amino-1,3-dihydro-1-oxo-2H-isoindole-2-yl)-piperidine-2,6-dione, reference compound]	> 300000	100 to 400	> 300000	≥ 300	< 50
